The text below walks through data of patent US9580390B2, “Indazole compounds as kinase inhibitors and method of treating cancer with same” (University Health Network, priority 2011, dated 2017).

What is called IC50 is the point on the concentration scale where inhibition reaches its midpoint. The GI50 is the concentration at which growth is held to half of that of the control.

One experiment concerns the target T1, human TTK (Homo sapiens, UniProt P33981).
T1 construct: amino terminal GST fusion of full length human TTK; purchased Invitrogen
T1 sequence (P33981 1-857): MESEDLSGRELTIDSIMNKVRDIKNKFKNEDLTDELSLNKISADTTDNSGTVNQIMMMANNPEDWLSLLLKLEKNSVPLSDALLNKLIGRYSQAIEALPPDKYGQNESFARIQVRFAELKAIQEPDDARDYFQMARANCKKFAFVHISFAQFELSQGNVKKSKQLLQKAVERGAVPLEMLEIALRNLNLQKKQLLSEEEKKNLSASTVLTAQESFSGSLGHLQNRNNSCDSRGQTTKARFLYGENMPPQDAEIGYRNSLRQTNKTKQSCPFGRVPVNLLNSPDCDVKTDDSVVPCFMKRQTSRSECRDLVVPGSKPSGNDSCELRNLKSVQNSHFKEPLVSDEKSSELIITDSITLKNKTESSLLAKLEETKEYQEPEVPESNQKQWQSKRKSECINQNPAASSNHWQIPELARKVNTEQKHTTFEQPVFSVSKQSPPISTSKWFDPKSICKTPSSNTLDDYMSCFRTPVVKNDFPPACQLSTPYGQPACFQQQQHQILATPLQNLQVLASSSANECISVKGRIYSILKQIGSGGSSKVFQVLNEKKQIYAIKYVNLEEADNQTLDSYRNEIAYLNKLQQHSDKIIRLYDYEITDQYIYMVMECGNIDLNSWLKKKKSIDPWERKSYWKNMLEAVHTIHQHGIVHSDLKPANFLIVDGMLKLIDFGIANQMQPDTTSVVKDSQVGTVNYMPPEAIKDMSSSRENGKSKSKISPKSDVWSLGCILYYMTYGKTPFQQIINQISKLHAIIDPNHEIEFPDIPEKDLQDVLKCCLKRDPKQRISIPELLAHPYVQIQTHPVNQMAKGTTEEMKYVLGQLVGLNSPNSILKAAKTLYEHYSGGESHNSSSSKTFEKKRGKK
The experiment can be described thus: TTK inhibition assay (indirect ELISA). Type of experiment: biochemical. Conditions: read-out: TTK IC50 Range.

A further experiment deals with Breast cancer cells. The experiment can be described thus: Cancer cell line growth inhibition (SRB assay). The format is cell-based. Conditions: Homo sapiens; MDA-MB-468; read-out: Cancer Cell Line GI50 Range MDA-MB-468. (In SRB staining, fixed cells bind dye roughly in proportion to their protein.)
Experiment [1] deals with colon cancer cells (HCT116). In words: Cancer cell line growth inhibition (SRB assay). The format is cell-based. Conditions: Homo sapiens, HCT-116; read-out: Cancer Cell Line GI50 Range HCT116.
The subject of experiment [2] is ovarian cancer cells (PA-1). In words: Cancer cell line growth inhibition (SRB assay). Conditions: Homo sapiens, PA-1; read-out: Cancer Cell Line GI50 Range PA-1. Type of experiment: cell-based.
The next experiment has as its system TICs (Colon 12). In words: Colon tumor-initiating cell growth inhibition (Alamar Blue). The format is cell-based. Conditions: 216 h; Colon 12 TICs, 9 days; read-out: Tumor Initiating Cell GI50 Range Colon 12. A general note: Resazurin is reduced to fluorescent resorufin, in cell work by metabolically active cells.
Another experiment concerns TICs (Ovarian 2393A). In words: Ovarian tumor-initiating cell growth inhibition (Alamar Blue). The format is cell-based. Conditions: 144 h; Ovarian 2393A TICs, 6 days; read-out: Tumor Initiating Cell GI50 Range Ovarain 2393A.

Excerpt for TICs (Ovarian 2393A): Materials and Methods: Non-tissue or tissue cultured treated T-75 flask and 96-well plates were purchased from VWR. Vitamin B-27 supplement, MEM NEAA (minimum essential medium non essential amino acids), sodium pyruvate, L-glutamine, N2 supplement, penicillin-streptomycin and fungizone/amphotericin B were obtained from Invitrogen. Lipid mixture, heparin and EGF were purchased from Sigma; bFGF from BD Biosciences. Tumor Initiating Cells (TICs) from colon were routinely maintained using non-tissue cultured treated T-75 flasks in DMEM:F12 medium containing 0.2×B-27 supplement, 4 ug/ml heparin, 1×MEM NEAA, 1× sodium pyruvate, 1 mM glutamine, 10 pg/ul bFGF, 20 pg/ul EGF, 1×N2 supplement, lipid mixture, penicillin-streptomycin and fungizone/amphotericin B. Ovarian TICs were routinely maintained using tissue cultured treated T-75 flasks in DMEM:F12 medium containing 1×B-27 supplement, 4 ug/ml heparin, 20 pg/ul bFGF, 20 pg/ul EGF and penicillin-streptomycin.
Assay Protocol: Compounds described herein were dissolved in DMSO and further diluted in cell culture medium for GI50 determination. Colon TICs were trypsinized and seeded into non-tissue cultured treated 96-well plates with 4,000 cells/well. After 24 h, compound was added into the cell culture at different concentrations, and the final concentration of DMSO was adjusted to 0.1%. Cells were then cultured at 37° C. for 9 days. Ovarian TICs were trypsinized and seeded into tissue cultured treated 96-well plates with 1,000 cells/well. After 24 h, compound was added into the cell culture at different concentrations, and the final concentration of DMSO was adjusted to 0.1%. Cells were then cultured at 37° C. for 6 days. Cell viability was assessed by Alamar Blue assay: 10 ul of Alamar Blue was added into each well. After 4 hours incubation at 37° C., fluorescence was recorded at excitation 544 and emission 590. GI50 (Growth inhibition) was calculated using GraphPad Prism 4.0 software.

Take `O=C(N[C@@H](c1ccccc1F)C1CC1)c1ccc2[nH]nc(-c3ccc(N4C5CCC4CC(O)C5)cc3)c2c1` (stereo partly drawn) [Example A266, N-((R)-cyclopropyl(2-fluorophenyl)methyl)-3-(4-((1R,3R,5S)-3-hydroxy-8-azabicyclo[3.2.1]octan-8-yl)phenyl)-1H-indazole-5-carboxamide]: at human TTK, the 50% inhibitory concentration (IC50) is less than 100 nM. Also, the 50% growth inhibitory concentration (GI50) (in the experiment on Breast cancer cells; in experiment [1]; in experiment [2]; in the experiment with TICs (Colon 12); in the experiment with TICs (Ovarian 2393A)) was less than 100 nM in each case.

Regarding `O=C(N[C@H](c1ccccc1)C1CC1)c1ccc2[nH]nc(-c3ccc(N4C5CCC4CC(O)C5)cc3)c2c1` (stereo partly drawn) [Example A362, N-((S)-cyclopropyl(phenyl)methyl)-3-(4-((1R,3S,5S)-3-hydroxy-8-azabicyclo[3.2.1]octan-8-yl)phenyl)-1H-indazole-5-carboxamide], the IC50 on human TTK was less than 100 nM. In addition, the GI50 (with Breast cancer cells; in experiment [1]; in experiment [2]; with TICs (Colon 12); in the experiment on TICs (Ovarian 2393A)) was less than 100 nM in each case.

With `CC(C)[C@H](NC(=O)c1ccc2[nH]nc(-c3ccc(OC4CCN(C)CC4)c(S(C)(=O)=O)c3)c2c1)c1ccccc1Cl` [Example A259, (S)-N-(1-(2-chlorophenyl)-2-methylpropyl)-3-(4-((1-methylpiperidin-4-yl)oxy)-3-(methylsulfonyl)phenyl)-1H-indazole-5-carboxamide], the IC50 on human TTK is less than 100 nM. Moreover, the GI50 in the experiment on Breast cancer cells is less than 100 nM; in experiment [1] it was less than 100 nM; in experiment [2], less than 100 nM; in the experiment on TICs (Colon 12), 100 to 500 nM; in the experiment with TICs (Ovarian 2393A), less than 100 nM.

Take `O=C(NC(c1ccsc1)C1CCC1)c1ccc2[nH]nc(-c3ccc(O[C@H]4C[C@H]5CC[C@@H](C4)N5C4COC4)cc3)c2c1` (stereo partly drawn) [Example A326, N-(cyclobutyl(thiophen-3-yl)methyl)-3-(4-(((1R,3R,5S)-8-(oxetan-3-yl)-8-azabicyclo[3.2.1]octan-3-yl)oxy)phenyl)-1H-indazole-5-carboxamide]: the IC50 at human TTK is less than 100 nM. Besides, the GI50 in the experiment on Breast cancer cells was 100 to 500 nM; in experiment [1], 100 to 500 nM; in experiment [2] it was 100 to 500 nM; with TICs (Colon 12) it was less than 100 nM; in the experiment on TICs (Ovarian 2393A), less than 100 nM.

With `CC(C)[C@H](NC(=O)c1ccc2[nH]nc(-c3ccc(N4CC(C5COC5)C4)cc3)c2c1)c1ccccc1Cl` [Example A310, (S)-N-(1-(2-chlorophenyl)-2-methylpropyl)-3-(4-(3-(oxetan-3-yl)azetidin-1-yl)phenyl)-1H-indazole-5-carboxamide], at human TTK, the concentration for half-maximal inhibition (IC50) is less than 100 nM. The GI50 (in the experiment on Breast cancer cells; in experiment [1]; in experiment [2]; in the experiment with TICs (Colon 12); with TICs (Ovarian 2393A)) was less than 100 nM in each case.

Turning to `O=C(N[C@H](c1ccccn1)C1CCCC1)c1ccc2[nH]nc(-c3ccc(N4CC(C5COC5)C4)cc3)c2c1` [Example A309, (S)-N-(cyclopentyl(pyridin-2-yl)methyl)-3-(4-(3-(oxetan-3-yl)azetidin-1-yl)phenyl)-1H-indazole-5-carboxamide], at human TTK, the IC50 is less than 100 nM. In addition, the concentration for 50% growth inhibition (GI50) (in the experiment on Breast cancer cells; in experiment [1]; in experiment [2]; in the experiment with TICs (Colon 12); with TICs (Ovarian 2393A)) was less than 100 nM in each case.

For the molecule `CC1=CC2(CCN(C)CC2)Oc2ccc(-c3n[nH]c4ccc(C(=O)NCC5(N6CCOCC6)CCCCC5)cc34)cc21` [Example A489, 3-(1′,4-dimethylspiro[chromene-2,4′-piperidin]-6-yl)-N-((1-morpholinocyclohexyl)methyl)-1H-indazole-5-carboxamide], the half-inhibitory concentration (IC50) at human TTK was less than 100 nM. The GI50 (in the experiment on Breast cancer cells; in experiment [1]; in experiment [2]; in the experiment with TICs (Colon 12); in the experiment on TICs (Ovarian 2393A)) was less than 100 nM throughout.

In the case of `CC(C)C(NC(=O)c1ccc2[nH]nc(-c3ccc(O[C@H]4C[C@H]5CC[C@@H](C4)N5C)cc3)c2c1)c1ccccc1Cl` (stereo partly drawn) [Example A279, N-(1-(2-chlorophenyl)-2-methylpropyl)-3-(4-(((1R,3R,5S)-8-methyl-8-azabicyclo[3.2.1]octan-3-yl)oxy)phenyl)-1H-indazole-5-carboxamide], the half-maximal inhibitory concentration (IC50) on human TTK was less than 100 nM. Further, the GI50 in the experiment on Breast cancer cells is less than 100 nM; in experiment [1], less than 100 nM; in experiment [2], less than 100 nM; in the experiment with TICs (Colon 12), 100 to 500 nM; with TICs (Ovarian 2393A), 100 to 500 nM.

Consider `O=C(NCC1(N2CCOCC2)CCCCC1)c1ccc2[nH]nc(-c3ccc(N4CCNCC4)cc3)c2c1` [Example A505, N-((1-morpholinocyclohexyl)methyl)-3-(4-(piperazin-1-yl)phenyl)-1H-indazole-5-carboxamide], for which the 50% inhibitory concentration (IC50) on human TTK is less than 100 nM. The GI50 is 100 to 500 nM with Breast cancer cells; less than 100 nM in experiment [1]; less than 100 nM in experiment [2]; more than 500 nM in the experiment on TICs (Colon 12); 100 to 500 nM with TICs (Ovarian 2393A).

Consider `CC(C)C(NC(=O)c1ccc2[nH]nc(-c3ccc(O[C@H]4C[C@H]5CCC[C@@H](C4)N5C)cc3)c2c1)c1ccccc1Cl` (stereo partly drawn) [Example A394, N-(1-(2-chlorophenyl)-2-methylpropyl)-3-(4-(((lR,3R,5S)-9-methyl-9-azabicyclo[3.3.1]nonan-3-yl)oxy)phenyl)-1H-indazole-5-carboxamide], for which the IC50 on human TTK was less than 100 nM. For the same molecule, the GI50 in the experiment with Breast cancer cells is 100 to 500 nM; in experiment [1] it was less than 100 nM; in experiment [2], 100 to 500 nM; with TICs (Colon 12), 100 to 500 nM; in the experiment with TICs (Ovarian 2393A), 100 to 500 nM.

In the case of `CN1CCC(Oc2ccc(-c3n[nH]c4ccc(C(=O)NC(c5ccccn5)C5CC5)cc34)cc2S(C)(=O)=O)CC1` (stereo not drawn) [Example A245, N-(cyclopropyl(pyridin-2-yl)methyl)-3-(4-((1-methylpiperidin-4-yl)oxy)-3-(methylsulfonyl)phenyl)-1H-indazole-5-carboxamide], the IC50 at human TTK is less than 100 nM. Also, the GI50 in the experiment on Breast cancer cells was more than 500 nM; in experiment [1], 100 to 500 nM; in experiment [2], 100 to 500 nM; in the experiment on TICs (Colon 12), more than 500 nM; with TICs (Ovarian 2393A), more than 500 nM.

As for `CN1[C@@H]2CC[C@H]1C[C@@H](Oc1ccc(-c3n[nH]c4ccc(C(=O)NCC5(c6ccccc6)CCOCC5)cc34)cc1)C2` [Example A484, 3-(4-(((1R,3R,5S)-8-methyl-8-azabicyclo[3.2.1]octan-3-yl)oxy)phenyl)-N-((4-phenyltetrahydro-2H-pyran-4-yl)methyl)-1H-indazole-5-carboxamide], the IC50 at human TTK was less than 100 nM. In addition, the GI50 with Breast cancer cells was 100 to 500 nM; in experiment [1] it was less than 100 nM; in experiment [2], less than 100 nM; in the experiment with TICs (Colon 12), 100 to 500 nM; in the experiment on TICs (Ovarian 2393A), 100 to 500 nM.

Take `CN1[C@@H]2CCC[C@H]1C[C@@H](Oc1ccc(-c3n[nH]c4ccc(C(=O)NC(c5ccccn5)C5CCCC5)cc34)cc1)C2` (stereo partly drawn) [Example A391, N-(cyclopentyl(pyridin-2-yl)methyl)-3-(4-(((1R,3R,5S)-9-methyl-9-azabicyclo[3.3.1]nonan-3-yl)oxy)phenyl)-1H-indazole-5-carboxamide]: the 50% inhibitory concentration (IC50) at human TTK is less than 100 nM. Further, the 50% growth inhibitory concentration (GI50) in the experiment with Breast cancer cells was 100 to 500 nM; in experiment [1], less than 100 nM; in experiment [2] it was less than 100 nM; with TICs (Colon 12) it was less than 100 nM; in the experiment on TICs (Ovarian 2393A) it was 100 to 500 nM.

On to `CC(C)[C@H](NC(=O)c1ccc2[nH]nc(-c3ccc(OC4CCN(C[C@@H](O)C(F)(F)F)CC4)cc3)c2c1)c1ccccc1Cl` [Example A228, N-((S)-1-(2-chlorophenyl)-2-methylpropyl)-3-(4-((1-((R)-3,3,3-trifluoro-2-hydroxypropyl)piperidin-4-yl)oxy)phenyl)-1H-indazole-5-carboxamide], for which the 50% inhibitory concentration (IC50) on human TTK is less than 100 nM. Moreover, the concentration for 50% growth inhibition (GI50) in the experiment with Breast cancer cells was 100 to 500 nM; in experiment [1], 100 to 500 nM; in experiment [2], 100 to 500 nM; in the experiment on TICs (Colon 12) it was more than 500 nM; in the experiment on TICs (Ovarian 2393A), 100 to 500 nM.
